# Reference: article PMC10223884, “Oligosaccharide Ligands of Galectin-4 and Its Subunits: Multivalency Scores Highly” (Molecules, 2023)
# Several values for one entry are separate records, joined by “and”; a condition that tells them apart may be missing. Equal entries are not always repeated.
# T1: Gal-4 (Homo sapiens, UniProt P56470)
# T1 construct: made in house; host or cells: Escherichia coli Rosetta (DE3) pLysS
# T1 sequence (P56470 1-323): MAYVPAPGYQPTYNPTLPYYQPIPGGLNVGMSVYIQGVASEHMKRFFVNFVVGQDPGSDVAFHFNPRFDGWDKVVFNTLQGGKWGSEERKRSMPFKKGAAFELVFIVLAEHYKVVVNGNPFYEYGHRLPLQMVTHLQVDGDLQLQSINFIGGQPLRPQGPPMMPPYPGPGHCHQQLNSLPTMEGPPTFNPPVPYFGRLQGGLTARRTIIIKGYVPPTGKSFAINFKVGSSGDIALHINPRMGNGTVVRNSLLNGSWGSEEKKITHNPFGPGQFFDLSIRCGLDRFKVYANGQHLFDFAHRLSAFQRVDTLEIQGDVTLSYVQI
# T2: Gal-4NL (Homo sapiens, UniProt P56470)
# T2 construct: designated as Gal-4NL (aa 1-160), and Gal-4CL (aa 169-323), respectively; made in house; host or cells: E. coli Rosetta (DE3) pLysS
# T2 sequence (P56470 1-160): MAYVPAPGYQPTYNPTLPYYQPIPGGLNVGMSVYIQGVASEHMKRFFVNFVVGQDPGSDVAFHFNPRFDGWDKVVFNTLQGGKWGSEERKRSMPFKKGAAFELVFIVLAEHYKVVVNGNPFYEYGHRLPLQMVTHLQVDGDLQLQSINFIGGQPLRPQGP
# T3: Gal-4CL (Homo sapiens, UniProt P56470)
# T3 construct: designated as Gal-4NL (aa 1-160), and Gal-4CL (aa 169-323), respectively; made in house; host or cells: E. coli Rosetta (DE3) pLysS
# T3 sequence (P56470 169-323): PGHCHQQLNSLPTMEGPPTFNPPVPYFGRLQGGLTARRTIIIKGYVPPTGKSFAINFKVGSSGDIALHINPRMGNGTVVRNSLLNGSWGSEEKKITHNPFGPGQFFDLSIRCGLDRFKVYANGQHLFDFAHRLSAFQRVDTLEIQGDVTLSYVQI
# T4: asialofetuin (standard glycoprotein, MW 48.4 kDa) (UniProt P12763 19-359, glycoprotein without sialic acid; carries up to nine LacNAc epitopes)
# T4 construct: Asialofetuin (desialylated fetuin), MW 48.4 kDa; Commercial asialofetuin is commonly from fetal calf serum; also called ASF
# T4 sequence (looked up): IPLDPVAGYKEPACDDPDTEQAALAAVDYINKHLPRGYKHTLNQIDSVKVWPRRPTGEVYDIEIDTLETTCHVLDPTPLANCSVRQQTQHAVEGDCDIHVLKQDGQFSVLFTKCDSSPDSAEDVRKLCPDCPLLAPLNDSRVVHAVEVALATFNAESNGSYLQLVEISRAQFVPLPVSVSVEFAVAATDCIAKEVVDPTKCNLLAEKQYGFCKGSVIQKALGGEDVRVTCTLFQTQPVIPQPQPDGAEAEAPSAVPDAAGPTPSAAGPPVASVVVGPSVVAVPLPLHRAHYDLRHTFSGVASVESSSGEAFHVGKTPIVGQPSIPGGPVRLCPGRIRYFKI
# B1: Gal-4NL: N-terminal subunit of Gal-4 (aa 1-160) with 10-amino-acid linker, His-tagged (protein)
# chain: T2 sequence (P56470 1-160)
# modifications: left off: His6, N-terminal, kept
# notes: N-terminal subunit of Gal-4 (aa 1-160) with 10-amino-acid linker, His-tagged
# B2: Galectin-4 (whole, His6-tagged construct of human Gal-4) (natural protein, UniProt P56470 1-323, looked up)
# chain: T1 sequence (P56470 1-323)
# notes: Galectin-4, human, whole protein (two CRDs joined by the linker peptide); also called whole Gal-4; total Gal-4; not shown: His6, N-terminal, kept
# Legend:
# [1] = molecular target: T1, Gal-4; assay: competitive ELISA, inhibition of binding of whole Gal-4 to immobilized ASF; conditions: for IC50: competitive ELISA, Gal-4 2.5 µM, immobilized ASF; for rp, relative potency (IC50 (lactose)/IC50 (ligand)): whole Gal-4
# Description: (§1) To design the ELISA method, we first examined the direct binding of the whole Gal-4, Gal-4NL, and Gal-4-CL to standard glycoprotein asialofetuin (ASF, MW 48.4 kDa), which carries up to nine LacNAc epitopes. The ASF was immobilized by hydrophobic interaction in microtiter-plate wells, and the binding of increasing concentrations of Gal-4 proteins was quantified by colorimetric immunodetection using horseradish peroxidase conjugated to an anti-His-tag antibody. The apparent dissociation constants (KD) were calculated from the non-linear regression of the binding curves (Figure 3). […] While for the Gal-4 ELISA measurement we used the concentration of Gal-4 of 2.5 μM, for both subunits, it was 25 μM. […] The Gal-4 proteins were incubated with increasing concentrations of the respective inhibitors, and the concentration-dependent inhibition of the binding to the immobilized ASF was quantified using spectrophotometric colorimetric immunodetection (HRP-conjugated anti-His-tag antibody). The respective half-maximal inhibition constants (IC50) were calculated from the non-linear regression of the sigmoidal curves (Figure 3), and they are shown in Table 2 and Table 3.
# (§2) Each incubation step was followed by washing the wells with 3 × 250 µL phosphate-buffered saline (PBS) containing 0.05% Tween® 20. In total, 0.1 µM ASF in PBS (50 µL/well) was coated onto microtiter plates (Nunc Immuno Sorb, ThermoFisher Scientific, Waltham, MA, USA) overnight. After blocking the wells with 2 mg/mL bovine serum albumin (BSA) in PBS buffer (250 µL/well, 1 h), serial dilutions of the inhibitors in PBS buffer containing 2 mM EDTA (EPBS) were incubated with Gal-4 (2.5 µM final dimer concentration) or its subunits, Gal-4CL and Gal-4NL (25 µM final monomer concentration) for 2 h (50 µL/well). The residual bound galectin was labeled with an anti-His-antibody conjugated with horseradish peroxidase (HRP) (Santa Cruz Biotechnology, Heidelberg, Germany; 1:999 dilution in PBS). The colorimetric reaction with TMB One substrate solution (Kem-En-Tec, Taastrup, Denmark; 50 µL/well) was stopped with 3 M hydrochloric acid (HCl) (50 µL/well) and quantified spectrophotometrically at 450 nm (Sunrise; Tecan Group Ltd., Männedorf, Switzerland). The values of half-maximal inhibitory concentrations (IC50) were calculated by non-linear regression (dose–response inhibition-variable slope) of sigmoidal curves from a minimum of three independent experiments using GraphPad Prism 8.4.3 (GraphPad Software, San Diego, CA, USA).
# [2] = molecular target: T2, Gal-4NL; assay: competitive ELISA, inhibition of binding of Gal-4NL subunit to immobilized ASF; conditions: for IC50: competitive ELISA, Gal-4NL 25 µM, immobilized ASF
# Description: as §1, §2
# [3] = molecular target: T3, Gal-4CL; assay: competitive ELISA, inhibition of binding of Gal-4CL subunit to immobilized ASF; conditions: for IC50: competitive ELISA, Gal-4CL 25 µM, immobilized ASF
# Description: as §1, §2
# [4] = dynamic light scattering (DLS) of Gal-4 and its subunits in solution; type: physicochemical; conditions: 25 µM, 25 °C
# Description: Therefore, we decided to obtain more insights into the potential aggregation behavior of the Gal-4 subunits in solution, which, theoretically, might have contributed to the multivalency effect, even with the monovalent Gal-4 subunits. The hydrodynamic radii of the whole Gal-4 and its subunits in the concentrations used in the ELISA assay (25 µM) were assessed using dynamic light scattering (DLS). This method provided information about the size distribution of the particles in the samples (Table 4). […] Therefore, the larger particles seemed to be more abundant in these distribution diagrams because light scattering is proportional to the sixth power of the scattering-matter diameter. To avoid misinterpretation, we also present the volume-weighed size distributions in Table 4, which highlight the most abundant populations of particles. These values indicate that in the cases of the whole Gal-4 and Gal-4CL, the large aggregates at 1200 nm and 400 nm, respectively, can be neglected (the volume-weighted size distributions accounted for 9 and 7 nm, respectively). The whole Gal-4 formed the most abundant particles, of 11 nm, which was similar to Gal-4CL with 8 nm particles. In the case of Gal-4NL, the solution was more polydisperse, and two significant populations were observed. The first population, of 1.3 nm, probably represented the individual Gal-4NL subunits, whereas the slightly larger population of 16 nm belonged to the aggregated species.
# The hydrodynamic diameter of the Gal-4 and its subunits (25 μM) was measured by dynamic light scattering (DLS) using Zetasizer Nano S90 (Malvern Instruments Ltd., Malvern, UK) at 25 °C. The light scattered at θ = 173° from the incident light was fitted to an autocorrelation function using the method of cumulants (Malvern Instruments Ltd., Malvern, UK). The hydrodynamic diameters were determined from five independent repetitions (10–50 runs) in Malvern disposable plastic cuvettes. The particle-size distribution was determined by analyzing the multimodal peak by intensity and volume.
# [5] = molecular target: T4, asialofetuin (standard glycoprotein, MW …); assay: ELISA; direct ELISA; ASF (0.1 µM in PBS) coated on microtiter plate overnight, blocked with BSA; increasing concentrations of Gal-4 or its subunits, 2 h; detected with HRP-conjugated anti-His antibody; apparent KD from non-linear regression; conditions: both partners purified
Molecule,IC50 [1] [µM],"rp, relative potency (IC50 (lactose)/IC50 (ligand)) [1]","rp Gal-4NL, relative potency (IC50 (lactose)/IC50 (ligand)) [2]",IC50 [2] [µM],"rp Gal-4CL, relative potency (IC50 (lactose)/IC50 (ligand)) [3]",IC50 [3] [µM],also measured
"C[C@@H]1O[C@@H](O[C@H]2[C@H](O[C@H]3[C@H](O)[C@@H](O)C(O)O[C@@H]3CO)O[C@H](CO)[C@H](O)[C@@H]2O)[C@@H](O)[C@H](O)[C@@H]1O (stereo partly drawn) [2′-fucosyllactose (2), 2′-fucosyllactose]",1500 ± 200,1.7,4.8,600 ± 60,7.8,1100 ± 100,
"CC(=O)N[C@H]1C(O)O[C@H](CO)[C@H](O)[C@@H]1O[C@@H]1O[C@H](CO)[C@H](O)[C@H](O)[C@H]1O (stereo partly drawn) [TF antigen motif (9), β-D-galactopyranosyl-(1→3)-2-acetamido-2-deoxy-D-galactopyranose]",1180 ± 50,2.1,0.8,3500 ± 200,1.5,5800 ± 500,
"CC(=O)N[C@H]1[C@H](O[C@H]2[C@@H](O)[C@@H](CO)O[C@@H](O[C@H]3[C@H](O)[C@@H](O)C(O)O[C@@H]3CO)[C@@H]2O)O[C@H](CO)[C@@H](O[C@@H]2O[C@H](CO)[C@H](O)[C@H](O)[C@H]2O)[C@@H]1O (stereo partly drawn) [lacto-N-neotetraose (4), lacto-N-neotetraose]",600 ± 100,4.1,7.3,400 ± 100,10,800 ± 300,
"CC(=O)N[C@H]1[C@H](O[C@H]2[C@@H](O)[C@@H](CO)O[C@@H](O[C@H]3[C@H](O)[C@@H](O)C(O)O[C@@H]3CO)[C@@H]2O)O[C@H](CO)[C@@H](O)[C@@H]1O[C@@H]1O[C@H](CO)[C@H](O)[C@H](O)[C@H]1O (stereo partly drawn) [lacto-N-tetraose (3), lacto-N-tetraose]",430 ± 70,5.9,14,210 ± 30,18.3,470 ± 900,
"OC[C@H]1O[C@@H](O[C@H]2[C@H](O)[C@@H](O)[C@H](O)O[C@@H]2CO)[C@H](O)[C@@H](O)[C@H]1O [lactose (1), lactose]",2500 ± 200,1.0,1.0,2900 ± 400,1.0,8600 ± 1100,
CC(C)(C)OC(=O)NCCNC(=S)N[C@@H]1O[C@H](CO)[C@@H](O[C@@H]2O[C@H](CO)[C@H](O)[C@H](O)[C@H]2O)[C@H](O)[C@H]1O [lactosyl-tBoc 10],2500,,,,,,
B1,,,,,,,"Intensity-Weighed Size Distribution Area (first population) [4]: 13%; Intensity-Weighed Size Distribution Area (second population) [4]: 50%; Intensity-Weighed Size Distribution Size (first population) [4]: 1.3 nm and 1.3 ± 0.3 nm; Intensity-Weighed Size Distribution Size (second population) [4]: 16 nm and 16 ± 7 nm; PDI, polydispersity index [4]: 0.4; Volume-Weighted Size Distribution Area [4]: 100%; Volume-Weighted Size Distribution Size [4]: 3 ± 1 nm"
B2,,,,,,,Kd [5]: 3.3 ± 1.1 µM
